Data: US20100022517A1, “OPHTHALMIC FORMULATION OF RHO KINASE INHIBITOR COMPOUND” (priority 2006, published 2010)
Values after ≈ are worked out from the molar mass of the structure shown. Like-named read-outs stand apart in the source and are kept apart here.

Experiments:
[1] = Impact of pH on solubility, buffered cosolvent system (plON pSOL Evolution); type: physicochemical; conditions: for solubility: buffered cosolvent system
Protocol: Solubility was determined within a target pH range of 4.0-9.0 using a buffered cosolvent system (plON pSOL Evolution).

[2] = Solubility of Compound A at target pH 7.3 in 0.85% NaCl vehicle with surfactant or chelating agent, filtered, UV analysis; type: physicochemical; conditions: for Concentration Compound A: 20 mM prepared
From the text: Concentrations of the surfactant used were at the maximum allowable concentration for excipients Generally Regarded As Safe (GRAS).

[3] = Accelerated stability of Compound A formulation at 60° C., HPLC with UV detection; type: physicochemical; conditions: increase in pH from 5.3 to 6.3 and 7.3, 0.9% saline, 0.1% EDTA, 0.01% benzalkonium chloride, 0.8% polysorbate 80
From the text: Compound A was formulated in a 0.9% saline solution containing 0.1% EDTA, 0.01% Benzalkonium Chloride and 0.8% Polysorbate 80 at three levels of pH; 5.3, 6.3 and 7.3.

[4] = Effect of formulation pH on ocular surface, aqueous humor and systemic bioavailability after topical ocular dosing; type: in vivo
Protocol: Dose Formulation and Administration. Compound A was formulated at 0.12% w/v (the equivalent millimolar concentration is 3 mM) in 10 mM phosphate, 0.8% polysorbate 80, 0.85% NaCl, 0.01% BAC, 0.1% EDTA at three different pH's, 5.3, 6.3 and 7.3, Compound A was administered as a 30 μl drop to both eyes of each animal within a dosing group and the influence of pH on ocular and systemic exposure was examined.
Study sampling. Plasma, aqueous humor, and ocular samples were obtained from 2 animals (4 eyes) per dosing group at times of 0.25, 0.5, 1, and 2 hours post dosing.
Aqueous humor is the fluid within the anterior chamber of the eye and has the closest correlation to the concentration at the site of action, the trabecular meshwork. Cmax indicates the peak concentration of drug found within aqueous humor. AUC indicates total concentration of the drug within the aqueous humor over time.
Plasma concentration analysis indicates systemic exposure. Systemic exposure is the exposure of the drug to the entire body. Cmax and AUC describe the peak concentration and total concentration of the drug over time, respectively, for Compound A in plasma.
40 μL of saline was applied to the eyes at 0.25 h, 0.5 h, 1 h, and 2 h after administration of Compound A, and the lavage fluids were collected as samples. Ocular surface relates to the surface of the cornea and conjunctiva. Ocular surface residence time is the average time Compound A resides on the ocular surface.

[5] = Ocular comfort composite behaviour score after ocular instillation; type: in vivo, rabbit
Protocol: Dose Formulation and Administration.
Formulation A: 10 mM phosphate, 1% polysorbate 80, 0.85% NaCl, 0.02% BAC, 0.2% EDTA pH 7.0.
Formulation B: 10 mM phosphate, 1% polysorbate 80, 2.36% Glycerol, 0.02% BAC, 0.2% EDTA pH 7.1.
Formulation C: 10 mM phosphate, 1% polysorbate 80, 2.36% Glycerol, 0.02% BAC, 0.2% EDTA, 0.5% hydroxypropyl methyl cellulose, pH 7.1.
Formulation D: 10 mM phosphate, 1% polysorbate 80, 2.36% Glycerol, 0.02% BAC, 0.2% EDTA, 1% 1,2 dimyristoyl-sn-glycero-3-phosphocholine, pH 7.1.
Pharmacodynamic Analysis. Formulations A-D were administered as two 30 μl drops to the right eye of each rabbit within a dosing group. The rabbits were evaluated for 15 minutes after ocular instillation and their changes in behavior were recorded. […] The higher the score, the more discomfort an animal is. A mean±SE was generated for each group.

[6] = […] w/v, 30 μl drop to both eyes, increasing pH 5.3, 6.3, 7.3

In the case of `CCS(=O)(=O)Nc1cccc(CN2CCC[C@@H](Nc3ccc4[nH]ncc4c3)C2)c1` [Compound 1.123, (R)-N-(3-((3-(1H-indazol-5-ylamino)piperidin-1-yl)methyl)phenyl)ethanesulfonamide], the solubility ([1]; pH 5.6, read-out: maximum solubility) is reported as 5000 µg/mL (≈ 12.1 mM), the “Avg. Sol” value ([1]; pH 5.6) is reported as 5001 µg/mL and the “Avg. Sol” value ([1]; pH 7.2) is reported as 948 µg/mL. For the same compound, the “Avg. Sol” value ([1]; pH 8.5) was 282 µg/mL.

For `OCCOc1cccc(CN2CC[C@@H](Nc3cccc4cnccc34)C2)c1` [Compound 2.039, (R)-2-(3-((3-(isoquinolin-5-ylamino)pyrrolidin-1-yl)methyl)phenoxy)ethanol], the “Concentration Compound A” value ([2]; EDTA 0.3%, pH of solution 7.39, 0.85% NaCl) was 1380 µg/mL, the “Concentration Compound A” value ([2]; HCO-40 (hydrogenated castor oil) 0.5%, pH of solution 7.39, 0.85% NaCl) was 2540 µg/mL and the “Concentration Compound A” value ([2]; Poloxamer 188 0.1%, pH of solution 7.30, 0.85% NaCl) was 1490 µg/mL. The “Concentration Compound A” value ([2]; Poloxamer 407 0.16%, pH of solution 7.28, 0.85% NaCl) was 6020 µg/mL, the “Concentration Compound A” value ([2]; Polysorbate 80 1%, pH of solution 7.49, 0.85% NaCl) was 3850 µg/mL and the “solubility of Compound A among the surfactant formulations” value ([2]; formulations containing polysorbate 80 and poloxamer 407, target pH 7.3) was “highest solubility”. For the same compound, the “stability (percent of Compound A remaining)” value [3] was “decrease in stability”, the solubility ([1]; pH 4-5.8, read-out: solubility) was over 20000 µg/mL and the “Avg. Sol” value ([1]; pH 4.0) was over 20000 µg/mL. The “Avg. Sol” value ([1]; pH 5.8) was over 20000 µg/mL, the “Avg. Sol” value ([1]; pH 7.7) was 2312 µg/mL and the ocular surface concentration ([4]; 0.25 h, between pH 5.3 and 6.3) was “increased only slightly”. The ocular surface concentration ([4]; 0.25 h, from pH 6.3 to 7.3) was “no change”, the “aqueous humor exposure (Cmax and AUC)” value [4, 6] was “enhances the exposure within the aqueous humor” and the “plasma concentration (Cmax and AUC), systemic exposure” value [4, 6] was “no effect on the plasma concentration”. The “ocular surface residence time” value ([4]; […] w/v, pH increased from 5.3, 6.3 to 7.3, over 2 hours) was “increase in residence time”, the ocular surface concentration ([4]; between 1 and 2 hours, pH 7.3) was “remained consistent” and the ocular comfort score ([5]; 0.16% w/v, two 30 μl drops, right eye, addition of 1% 1,2 dimyristoyl-sn-glycero-3-phosphocholine (Formulation D)) was “increased ocular discomfort”. For the same compound, the ocular comfort score ([5]; increasing concentrations 0.03%, 0.1%, 0.32% w/v in formulation A) was “increased ocular discomfort” and the ocular comfort score ([5]; lower concentrations 0.03 and 0.1% w/v in formulation A, versus ALPHAGAN, RESTASIS, pilocarpine, LUMIGAN) was “comparable to those of the approved glaucoma medications”.
